This note sets out measurements from patent US10653672B2, “Myogenesis promotor, muscle atrophy inhibitor, medical composition and TAZ activator” (National University Corporation Tokyo Medical and Dental …, priority 2014, dated 2020).

“And” between values parts separate entries of the source, which are not always exact repeats. Equal values may be shown once.

One data set has as its system Pax3 reporter. Kind of data set: Luciferase reporter assay, Pax3 reporter. In kind it is cell-based. The conditions noted are these: Mus musculus, C2C12, 24 h, C2C12 cells expressing reporter and TAZ WT, differentiation medium 24 hours. As to the method:
The effect and its degree on the activity of a reporter, derived from a transcription factor that interacts with TAZ in C2C12 cells, were evaluated. Specifically, C2C12 cells expressing luciferase reporters corresponding to MyoD, TEAD, SMAD and Pax3 and C2C12 cells expressing these luciferase reporters and TAZ were cultured in a culture medium added with IBS008738 or DMSO at a concentration of 10 μM, respectively. […] The line and the error bar indicate the average value and the standard error, *p<0.05, **p<0.01, ns refers to not significant.
Transfection of the luciferase reporters was performed to the C2C12 cells after being plated at 12-well plates (1×10^5 cells/well) and cultured overnight. As the luciferase reporters, pGL3 Myo-184- (MyoD-), 8×GT-IIC-δ51LucII- (TEAD-), 9×CAGA-MLP-(SMAD-), and p(PRS-1/-4)3- (Pax3-) were transfected to the cells alone or with TAZ. These reporter vectors were from Keiji Miyazawa (Yamanashi University), Hiroshi Sasaki (Kumamoto University) and Hiroki Kurihara (The University of Tokyo).
Immediately after the transfection, DMSO or IBS008738 was added at a concentration of 10 μM, respectively. After growing the cells to confluence, the cells were transferred to a differentiation medium with DMSO or IBS008738, and cultured for 24 hours before the luciferase assay.
In general terms: A reporter such as luciferase makes a cellular process visible.

In a further data set the test system is HCT116 cells. Put plainly: Immunoblotting of EMT markers in HCT116 cells. The class given is cell-based, human. As to the method:
(1) A431 cells, (epidermoid carcinoma), A549 cells (adenocarcinomic human alveolar basal epithelial cell) and HCT116 cells (human colon cancer) were treated with IBS008738 or DMSO, respectively, and evaluated by immunoblotting.
HEK293, A431, A549, HCT116, MCF7 and SW480 cells were cultured in Dulbecco's Modified Eagle Medium (DMEM) containing 10% fetal bovine serum (FBS), 10 mM HEPES-NaOH at pH 7.4, 100 U/ml penicillin and 100 mg/I streptomycin under 5% CO2 at 37° C.

Data set [1] relates to C2C12 cells. Put plainly: Antagonistic action on myostatin in C2C12 cells. The class given is cell-based, mouse. Particulars: TAZ knocked down (si TAZ); with myostatin; differentiation condition 72 hours. The source says: Myostatin is a protein and a member of a transforming growth factor […] superfamily, and inhibits muscle growth and differentiation. Myostatin binds activin type IIB receptor and triggers SMAD2/3-dependent signaling. Since TAZ interacts with SMAD2/3, effects of IBS008738 on the signaling of myostatin was examined (FIGS. 8A to 8C). The line in the figures is 100 μm. The line and the error bar indicate the average value and the standard error, *p<0.05, […], ***p<0.001, ns refers to not significant.
(1) C2C12 cells in which TAZ was knocked down (si TAZ) and C2C12 cells in which TAZ was not knocked down (si Cont) were grown to confluence, respectively, A stock solution of 100 μg/mL myostatin in 4 mM […] with 0.1% (w/v) BSA and a stock solution of 10 mM IBS008738 in DMSO were prepared. The cells were cultured at differentiation condition for 72 hours in a 1 mL medium with 1 μL DMSO, a 1 mL medium with 1 μL myostatin stock solution, and a 1 mL medium with 1 μL IBS008738 stock solution. As a result, muscle formation of the C2C12 cells was inhibited in the case with only myostatin, but muscle formation of the C2C12 cells was recovered in the case with myostatin and IBS008738.
(2) The fusion index of C2C12 cells in which TAZ was knocked down (si TAZ) and C2C12 cells in which TAZ was not knocked down (si Cont), after being cultured under differentiation condition for 72 hours, was analyzed.
Expression of MHC of C2C12 cells in which TAZ was knocked down (si TAZ) and C2C12 cells in which TAZ was not knocked down (si Cont), after being cultured under differentiation condition for 72 hours, was analyzed by immunoblotting. As a result, expression of MHC decreased in the case with only myostatin, whereas it recovered in the case with myostatin and IBS008738 (see FIG. 8C).

The test system of the next data set is TAZ. Put plainly: Quantitative real-time PCR, TAZ. Particulars: C2C12 cells, 10 μM; for Normarized mRNA abundance, TAZ: listed as IBS008738. The class given is cell-based, mouse. As to the method:
(§1) (1) Quantitative real-time PCR was performed with C2C12 cells immediately before the induction of muscle formation (0 h), and after culturing under differentiation condition in a culture medium added with IBS008738 or DMSO at a concentration of 10 μM for 24 hours (24 h) and 72 hours (72 h), respectively. […] The line and error bar indicate the average value and the standard error, **p<0.05, and ns refers to not significant.
(§2) The quantitative real-time PCR was performed with SYBER Green (Roche) and ABI7500 Realtime PCR system (Applied Biosystems).
In general terms: Quantitative PCR measures a nucleic acid by following its amplification.

Data set [2] concerns connective tissue growth factor (CTGF). Kind of data set: Quantitative real-time PCR, CTGF. In kind it is cell-based, mouse. Particulars: C2C12 cells, 10 μM; for Normarized mRNA abundance, CTGF: listed as IBS008738. As to the method:
as §1
(2) Evaluation was also performed under the same condition on the connective tissue growth factor (CTGF) and cyclin D1, as TAZ targets in epidermal cells.
as §2

Data set [3] relates to C2C12 cells. Put plainly: Muscle formation in C2C12 cells with or without TAZ knockdown (anti-MHC immunostaining, immunoblotting). In kind it is cell-based, mouse. Particulars: C2C12 cells with TAZ not knocked down (si Cont); 10 μM; 72 hours. The procedure: (2) C2C12 cells with TAZ knocked down by a method described in Sci Signal 2:ra59 (si TAZ) and C2C12 cells with TAZ not knocked down (si Cont) were cultured for 72 hours in a culture medium added with IBS008738 or DMSO at a concentration of 10 μM, respectively, and were immunostained with an anti-MHC antibody (the white portion in FIG. 3B, the bar is 100 μm). Further, immunoblotting was performed with an anti-MHC antibody and an anti-TAZ antibody (see FIG. 3C). […] Further, the expression of MHC was lost by the knockdown of TAZ.
Human TAZ and mouse TAZ were knocked down in MCF10A cells and C2C12 cells as described previously (Ikeda M et al., Sci Signal 2:ra59). The double strand (ds) RNAs used are human TAZ (Ambion s24789) and mouse TAZ (Dharmacon siRNA D-041057).

Data set [4] has as its target T1, interaction of TAZ and MyoD (Homo sapiens, UniProt Q9GZV5).
T1 construct: expressed in transfected cells; host or cells: HEK 293 (human embryonic kidney cells)
Put plainly: Immunoprecipitation of FLAG-TAZ and HA-MyoD in HEK 293 cells. In kind it is cell-based. The conditions noted are these: HEK 293 expressing FLAG-TAZ and HA-MyoD. As to the method: (2) For analyzing the effects of IBS008738 on the interaction of TAZ and MyoD, immunoprecipitation was performed on human embryonic kidney cells (HEK 293) expressing FLAG-TAZ and HA-MyoD, with anti-FLAF M2 beads.

As usually defined, the fold induction is the signal under treatment as a multiple of the control signal.

T1 sequence (Q9GZV5 whole entry): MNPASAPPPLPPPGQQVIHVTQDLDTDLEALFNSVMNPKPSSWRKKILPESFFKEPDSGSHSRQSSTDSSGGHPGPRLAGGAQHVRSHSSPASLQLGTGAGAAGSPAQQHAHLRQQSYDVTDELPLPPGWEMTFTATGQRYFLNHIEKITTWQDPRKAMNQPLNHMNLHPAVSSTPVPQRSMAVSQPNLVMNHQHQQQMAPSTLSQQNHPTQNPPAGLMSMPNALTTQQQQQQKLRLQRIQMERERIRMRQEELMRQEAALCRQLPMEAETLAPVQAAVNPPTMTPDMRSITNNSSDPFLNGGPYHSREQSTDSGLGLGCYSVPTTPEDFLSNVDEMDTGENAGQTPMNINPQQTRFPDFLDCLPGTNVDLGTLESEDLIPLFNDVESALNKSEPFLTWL

In the case of `Cc1ccc(-n2cnc(/N=C/N3CCOCC3)c2C(=O)c2ccccc2)cc1` [exemplary compound 1], the fold induction at 10 µM in the data set on Pax3 reporter came out at 0.8. The “EMT markers (fibronectin, E-cadherin, N-cadherin and vimentin) compared with DMSO” value with HCT116 cells is given as “no significant difference”. Moreover, the “muscle formation of the C2C12 cells” value in the data set with C2C12 cells [1] was “did not recover”. Moreover, the “expression of TAZ (gene transcription) compared with DMSO” value in the data set on TAZ (24 h and 72 h) is given as “did not change”. In addition, the “Normarized mRNA abundance, TAZ” value was 0.88 and 0.94 with TAZ (differentiation condition 24 h); 1.44 and 1.36 and 1.41 with TAZ (differentiation condition 72 h). In addition, in data set [2] (24 h and 72 h), the “gene transcription of CTGF compared with DMSO” value is reported as “no significant difference”. Moreover, the “Normarized mRNA abundance, CTGF” value in data set [2] (differentiation condition 24 h) was 0.32 and 0.30 and 0.25; in data set [2] (differentiation condition 72 h), 1.76 and 2.01 and 2.04. In addition, in the data set on C2C12 cells [3], the muscle formation result is on record as “promoted muscle formation”. Besides, the “interaction of TAZ and MyoD compared with DMSO” value in data set [4] is on record as “slightly promoted”.
